Values of other authors, collected in US11077125B2, “Ophthalmic composition containing sulfasalazine and hyaluronic acid” (KUKJE PHARMA CO., LTD., priority 2016, dated 2021).
In brackets after ≈: the same amount, converted by molar mass.

Details: in water

O=C(O)c1cc(/N=N/c2ccc(S(=O)(=O)Nc3ccccn3)cc2)ccc1O [Sulfasalazine]
solubility: 46.4 µg/mL (≈ 116 µM)
